From ChEMBL document CHEMBL1201862, “PubChem BioAssay data set” (2004)
Activity calls are given as the source filed them.

Assays:
[1] = intracellular Trypanosoma cruzi inhibitors in host cells – cell-based, plate reader, cherry-pick samples, set 3, dose response (AID 651818); assay type: functional;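 further: compounds incubated with infected cells for about four days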
[2] = target: T1, Voltage-gated N-type calcium channel alpha-1B subunit/Amyloid beta A4 precursor protein-binding family A member 1 (Homo sapiens, UniProt Q00975+Q02410); assay type: protein assay
[3] = target: T1, Voltage-gated N-type calcium channel alpha-1B subunit/Amyloid beta A4 precursor protein-binding family A member 1; assay type: protein assay; remark: listed apart in the source
[4] = target: Large T antigen (Simian virus 40, UniProt P03070); assay type: functional, Betapolyomavirus macacae;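 further: Confirmatory-stage PubChem screen for compounds that inhibit SV40 T antigen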
[5] = P. falciparum Dd2 growth inhibitors, dose response, SYBR Green, cherry-picked samples (AID 1159567); assay type: functional, cell-based
[6] = cells; assay type: functional
[7] = target: Fatty acid synthase (Homo sapiens, UniProt P49327); assay: FAS thioesterase domain inhibitors, dose response, biochemical, kinetic fluorescence intensity (AID 624326); assay type: functional;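 further: rate of fluorescence rise from hydrolysis of a fluorogenic O-methyl fluorescein ester substrate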
[8] = target: T2, Corticotropin-releasing factor receptor 2/Corticotropin-releasing factor-binding protein (Homo sapiens, UniProt P24387+Q13324); assay: Dose Response confirmation of uHTS hits for small molecule antagonists of the CRF-binding protein and CRF-R2 receptor complex.; assay type: functional; conditions: read-out: IC50_Mean
T2 sequence (Q13324 whole entry): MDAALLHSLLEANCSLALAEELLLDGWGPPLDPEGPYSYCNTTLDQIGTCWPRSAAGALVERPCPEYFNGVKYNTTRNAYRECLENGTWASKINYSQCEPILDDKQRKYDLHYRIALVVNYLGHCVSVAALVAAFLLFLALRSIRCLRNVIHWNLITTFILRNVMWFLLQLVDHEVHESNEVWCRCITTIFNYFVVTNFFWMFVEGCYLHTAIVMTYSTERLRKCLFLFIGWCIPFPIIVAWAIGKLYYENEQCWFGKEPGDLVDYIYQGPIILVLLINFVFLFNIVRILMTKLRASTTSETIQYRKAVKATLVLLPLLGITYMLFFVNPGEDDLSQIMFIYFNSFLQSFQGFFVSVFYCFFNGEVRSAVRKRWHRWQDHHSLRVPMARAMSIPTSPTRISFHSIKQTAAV
T2 sequence (P24387 whole entry): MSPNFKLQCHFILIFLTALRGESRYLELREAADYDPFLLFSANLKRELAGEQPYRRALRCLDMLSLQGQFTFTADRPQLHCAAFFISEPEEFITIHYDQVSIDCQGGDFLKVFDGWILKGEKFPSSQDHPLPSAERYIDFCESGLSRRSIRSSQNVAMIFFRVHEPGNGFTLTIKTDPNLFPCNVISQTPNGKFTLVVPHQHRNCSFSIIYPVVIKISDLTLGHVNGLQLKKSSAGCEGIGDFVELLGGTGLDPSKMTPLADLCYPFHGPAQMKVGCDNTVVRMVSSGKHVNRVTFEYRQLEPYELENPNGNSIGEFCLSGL

[9] = target: T2, Corticotropin-releasing factor receptor 2/Corticotropin-releasing factor-binding protein; assay: activators of CRF receptor 2 with binding protein – uHTS hits, confirmation (AID 602473); assay type: functional; conditions: read-out: EC50_Mean
[10] = target: T3, fMet-Leu-Phe receptor (Homo sapiens, UniProt P21462); assay: FPR ligands, dose response (AID 519); assay type: functional
T3 sequence (P21462 whole entry): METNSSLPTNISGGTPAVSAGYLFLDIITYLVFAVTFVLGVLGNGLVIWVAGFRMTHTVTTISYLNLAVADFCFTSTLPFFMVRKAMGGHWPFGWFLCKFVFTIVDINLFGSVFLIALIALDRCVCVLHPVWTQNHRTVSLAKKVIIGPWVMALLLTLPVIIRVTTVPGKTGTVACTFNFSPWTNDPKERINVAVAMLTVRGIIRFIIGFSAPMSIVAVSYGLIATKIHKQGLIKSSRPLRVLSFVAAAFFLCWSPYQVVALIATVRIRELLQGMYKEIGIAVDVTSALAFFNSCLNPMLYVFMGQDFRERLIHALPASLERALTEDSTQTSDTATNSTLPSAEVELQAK

[11] = target: T4, Short transient receptor potential channel 4 (Mus musculus, UniProt Q9QUQ5); assay: mouse TRPC4 channel inhibitors, dose response, cell-based, HEK293 TRPC4/mu-opioid, Fluo-4 calcium (AID 434942); assay type: functional;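 further: potency of inhibitors blocking the TRPC4 calcium response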
T4 sequence (Q9QUQ5 whole entry): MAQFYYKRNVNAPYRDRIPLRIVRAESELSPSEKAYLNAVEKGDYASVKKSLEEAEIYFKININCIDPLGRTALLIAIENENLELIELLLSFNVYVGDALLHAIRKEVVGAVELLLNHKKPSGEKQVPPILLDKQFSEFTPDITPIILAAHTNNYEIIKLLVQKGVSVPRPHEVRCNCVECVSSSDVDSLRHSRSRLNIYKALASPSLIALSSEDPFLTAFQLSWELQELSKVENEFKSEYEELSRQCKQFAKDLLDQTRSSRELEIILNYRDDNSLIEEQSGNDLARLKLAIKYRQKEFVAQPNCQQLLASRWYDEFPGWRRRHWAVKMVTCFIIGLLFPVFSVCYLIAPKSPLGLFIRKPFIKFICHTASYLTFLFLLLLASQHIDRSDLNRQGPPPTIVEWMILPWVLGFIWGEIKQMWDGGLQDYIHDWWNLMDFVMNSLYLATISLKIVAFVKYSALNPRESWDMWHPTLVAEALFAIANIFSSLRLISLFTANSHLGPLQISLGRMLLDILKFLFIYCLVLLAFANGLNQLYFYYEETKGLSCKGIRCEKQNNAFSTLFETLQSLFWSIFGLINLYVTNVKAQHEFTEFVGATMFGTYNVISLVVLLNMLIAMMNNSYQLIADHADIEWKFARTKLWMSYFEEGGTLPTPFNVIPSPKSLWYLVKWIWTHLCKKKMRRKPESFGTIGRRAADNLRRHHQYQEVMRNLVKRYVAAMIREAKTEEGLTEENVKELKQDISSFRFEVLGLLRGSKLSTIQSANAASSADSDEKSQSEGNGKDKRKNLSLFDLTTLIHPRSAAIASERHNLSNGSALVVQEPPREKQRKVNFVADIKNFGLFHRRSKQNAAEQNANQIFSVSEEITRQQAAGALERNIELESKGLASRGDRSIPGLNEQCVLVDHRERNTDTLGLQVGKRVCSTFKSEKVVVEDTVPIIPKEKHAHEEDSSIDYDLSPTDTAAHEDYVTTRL

[12] = target: T5, Heat shock factor protein 1 (Mus musculus, UniProt P38532); assay: inhibition of MG132-induced HSE-luciferase signal, confirmation, cell-based, NIH3T3, luminescence, dose retest (AID 2382); assay type: functional;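 further: NIH3T3 fibroblasts with HSF1-driven luciferase reporter stressed by proteasome inhibitor MG132; luminescence from HSF1-driven luciferase expression after 8 hours of MG132 stress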
T5 sequence (P38532 whole entry): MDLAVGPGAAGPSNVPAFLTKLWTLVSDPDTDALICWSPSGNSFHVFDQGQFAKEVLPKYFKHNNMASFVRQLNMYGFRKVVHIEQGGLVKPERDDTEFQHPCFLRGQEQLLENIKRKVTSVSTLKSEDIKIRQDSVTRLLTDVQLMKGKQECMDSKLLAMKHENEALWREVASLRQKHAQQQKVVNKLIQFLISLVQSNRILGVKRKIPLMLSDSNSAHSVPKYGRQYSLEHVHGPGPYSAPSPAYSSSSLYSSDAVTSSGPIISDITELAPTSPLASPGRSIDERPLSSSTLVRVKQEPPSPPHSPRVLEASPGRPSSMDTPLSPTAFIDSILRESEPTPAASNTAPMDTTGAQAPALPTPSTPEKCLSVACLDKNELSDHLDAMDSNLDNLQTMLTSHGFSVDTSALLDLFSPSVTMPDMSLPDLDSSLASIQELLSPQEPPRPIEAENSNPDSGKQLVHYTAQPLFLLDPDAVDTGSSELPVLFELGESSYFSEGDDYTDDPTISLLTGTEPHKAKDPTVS

[13] = test system: P388/ADR; assay: cells; assay type: functional; conditions: Mus musculus
[14] = test system: SN12K1; assay: cells; assay type: functional; conditions: Homo sapiens
[15] = test system: P388; assay: cells; assay type: functional; conditions: Mus musculus

T1 sequence (Q00975 whole entry): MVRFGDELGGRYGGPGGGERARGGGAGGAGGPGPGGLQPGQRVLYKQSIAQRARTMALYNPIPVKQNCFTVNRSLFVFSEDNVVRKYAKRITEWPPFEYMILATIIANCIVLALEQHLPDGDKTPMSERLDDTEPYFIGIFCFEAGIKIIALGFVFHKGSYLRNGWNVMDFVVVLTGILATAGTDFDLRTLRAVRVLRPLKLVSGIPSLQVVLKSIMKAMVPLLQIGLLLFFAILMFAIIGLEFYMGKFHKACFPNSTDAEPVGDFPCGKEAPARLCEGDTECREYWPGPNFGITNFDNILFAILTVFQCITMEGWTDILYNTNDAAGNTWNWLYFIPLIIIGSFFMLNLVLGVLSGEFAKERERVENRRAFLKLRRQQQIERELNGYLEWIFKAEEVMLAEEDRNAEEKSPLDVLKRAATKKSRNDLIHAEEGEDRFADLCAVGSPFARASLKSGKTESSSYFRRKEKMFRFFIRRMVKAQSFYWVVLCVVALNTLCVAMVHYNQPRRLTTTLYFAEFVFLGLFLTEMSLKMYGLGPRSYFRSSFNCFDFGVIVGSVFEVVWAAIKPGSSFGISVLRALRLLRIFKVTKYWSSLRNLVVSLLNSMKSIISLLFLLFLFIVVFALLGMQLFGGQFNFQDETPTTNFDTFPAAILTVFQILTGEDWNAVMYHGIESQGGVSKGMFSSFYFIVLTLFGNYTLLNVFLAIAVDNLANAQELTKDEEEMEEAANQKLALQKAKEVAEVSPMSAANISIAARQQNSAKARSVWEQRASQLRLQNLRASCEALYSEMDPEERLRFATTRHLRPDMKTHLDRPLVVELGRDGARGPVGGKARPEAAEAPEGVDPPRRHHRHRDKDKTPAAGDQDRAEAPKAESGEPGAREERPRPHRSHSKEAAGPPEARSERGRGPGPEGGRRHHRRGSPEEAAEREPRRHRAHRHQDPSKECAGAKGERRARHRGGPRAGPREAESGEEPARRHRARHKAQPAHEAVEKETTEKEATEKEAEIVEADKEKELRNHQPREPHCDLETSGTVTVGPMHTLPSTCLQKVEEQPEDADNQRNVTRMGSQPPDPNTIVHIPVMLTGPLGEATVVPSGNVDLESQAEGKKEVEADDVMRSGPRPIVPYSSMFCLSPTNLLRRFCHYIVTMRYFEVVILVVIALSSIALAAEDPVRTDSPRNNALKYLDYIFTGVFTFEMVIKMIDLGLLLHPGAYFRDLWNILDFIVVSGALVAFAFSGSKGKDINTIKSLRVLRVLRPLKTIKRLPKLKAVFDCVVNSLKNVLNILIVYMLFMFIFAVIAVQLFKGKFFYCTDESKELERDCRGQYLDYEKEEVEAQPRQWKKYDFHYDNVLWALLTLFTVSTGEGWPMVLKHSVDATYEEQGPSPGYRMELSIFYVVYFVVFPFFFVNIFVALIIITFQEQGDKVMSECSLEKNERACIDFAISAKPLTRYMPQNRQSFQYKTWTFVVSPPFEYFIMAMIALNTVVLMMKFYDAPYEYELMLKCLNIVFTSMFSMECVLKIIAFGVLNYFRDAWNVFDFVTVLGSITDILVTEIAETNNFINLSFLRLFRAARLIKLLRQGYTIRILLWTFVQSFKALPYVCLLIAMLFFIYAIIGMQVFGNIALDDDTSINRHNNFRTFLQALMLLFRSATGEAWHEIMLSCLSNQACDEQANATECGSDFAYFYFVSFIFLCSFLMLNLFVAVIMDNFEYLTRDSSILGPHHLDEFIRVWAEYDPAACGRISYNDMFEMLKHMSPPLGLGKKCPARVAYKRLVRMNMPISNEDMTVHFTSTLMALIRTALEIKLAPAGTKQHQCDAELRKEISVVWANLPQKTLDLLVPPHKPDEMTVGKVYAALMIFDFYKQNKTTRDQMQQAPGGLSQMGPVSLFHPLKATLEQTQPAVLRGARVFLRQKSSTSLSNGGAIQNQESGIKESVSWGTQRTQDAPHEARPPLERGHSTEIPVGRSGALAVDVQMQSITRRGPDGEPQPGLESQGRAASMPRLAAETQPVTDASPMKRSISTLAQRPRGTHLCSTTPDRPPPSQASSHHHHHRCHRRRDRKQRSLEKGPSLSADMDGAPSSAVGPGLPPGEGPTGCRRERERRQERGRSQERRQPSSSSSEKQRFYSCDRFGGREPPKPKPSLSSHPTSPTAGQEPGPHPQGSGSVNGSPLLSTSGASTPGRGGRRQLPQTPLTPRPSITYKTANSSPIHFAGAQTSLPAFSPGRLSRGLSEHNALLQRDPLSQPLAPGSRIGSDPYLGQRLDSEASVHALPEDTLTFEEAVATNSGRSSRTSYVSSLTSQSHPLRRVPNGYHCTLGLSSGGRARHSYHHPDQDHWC
T1 sequence (Q02410 whole entry): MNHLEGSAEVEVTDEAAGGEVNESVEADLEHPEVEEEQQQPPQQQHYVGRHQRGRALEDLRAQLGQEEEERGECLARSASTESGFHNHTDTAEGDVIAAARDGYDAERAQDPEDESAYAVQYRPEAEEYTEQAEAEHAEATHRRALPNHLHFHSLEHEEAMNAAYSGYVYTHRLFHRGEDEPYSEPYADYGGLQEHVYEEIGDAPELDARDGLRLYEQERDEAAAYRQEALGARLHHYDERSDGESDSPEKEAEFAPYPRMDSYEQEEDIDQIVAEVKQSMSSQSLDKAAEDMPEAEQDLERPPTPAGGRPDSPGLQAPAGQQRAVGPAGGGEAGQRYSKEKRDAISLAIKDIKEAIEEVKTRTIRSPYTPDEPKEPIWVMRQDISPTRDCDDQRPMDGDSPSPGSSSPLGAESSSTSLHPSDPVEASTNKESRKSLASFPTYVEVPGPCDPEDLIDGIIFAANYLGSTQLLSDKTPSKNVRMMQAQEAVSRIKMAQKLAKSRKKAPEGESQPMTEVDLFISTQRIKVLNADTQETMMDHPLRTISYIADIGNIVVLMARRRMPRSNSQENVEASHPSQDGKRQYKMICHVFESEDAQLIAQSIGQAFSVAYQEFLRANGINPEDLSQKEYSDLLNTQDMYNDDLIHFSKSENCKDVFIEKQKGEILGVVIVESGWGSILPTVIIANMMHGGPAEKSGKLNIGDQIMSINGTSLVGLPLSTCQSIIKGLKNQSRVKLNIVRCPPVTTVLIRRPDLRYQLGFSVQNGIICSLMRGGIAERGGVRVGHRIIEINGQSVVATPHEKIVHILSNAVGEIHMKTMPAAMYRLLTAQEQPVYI
Chain of Large T antigen (P03070 whole entry): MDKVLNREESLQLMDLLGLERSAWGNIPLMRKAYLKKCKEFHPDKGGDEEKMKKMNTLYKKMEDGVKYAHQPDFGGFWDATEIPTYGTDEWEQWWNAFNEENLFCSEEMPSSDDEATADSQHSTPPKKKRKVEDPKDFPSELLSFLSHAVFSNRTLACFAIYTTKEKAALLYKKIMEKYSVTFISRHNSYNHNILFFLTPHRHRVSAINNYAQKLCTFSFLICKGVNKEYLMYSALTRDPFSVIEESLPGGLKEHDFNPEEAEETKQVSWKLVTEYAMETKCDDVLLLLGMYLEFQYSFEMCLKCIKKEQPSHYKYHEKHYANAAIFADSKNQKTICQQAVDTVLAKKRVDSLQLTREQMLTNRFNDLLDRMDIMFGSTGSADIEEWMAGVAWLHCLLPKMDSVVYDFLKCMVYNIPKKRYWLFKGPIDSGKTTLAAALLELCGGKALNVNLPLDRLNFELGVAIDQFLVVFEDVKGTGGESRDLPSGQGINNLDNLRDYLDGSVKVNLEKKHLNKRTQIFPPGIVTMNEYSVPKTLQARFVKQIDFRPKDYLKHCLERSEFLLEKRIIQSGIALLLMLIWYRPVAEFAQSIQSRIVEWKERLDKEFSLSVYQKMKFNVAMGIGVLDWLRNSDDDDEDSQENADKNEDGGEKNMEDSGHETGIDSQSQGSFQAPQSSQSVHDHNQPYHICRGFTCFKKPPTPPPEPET

C[C@H](CO)N1C[C@H](C)[C@H](CN(C)Cc2ccc3c(c2)OCO3)Oc2ccc(NC(=O)NC3CCCCC3)cc2C1=O
AC50 [1]: 1.82 µM (active)

C[C@@H]1CN([C@@H](C)CO)C(=O)c2cccc(NC(=O)NC3CCCCC3)c2O[C@H]1CN(C)Cc1ccc(C(F)(F)F)cc1
AC50 [1]: 2.86 µM (active)

Cc1cc(O)c(C=O)c2c1C(=O)Oc1c(CO)c(O)c3c(c1O2)C(O)OC3=O (configuration not stated) [SLAZINIC ACID]
IC50 [2]: 12.5 µM (active) | IC50 [3]: 14.8 µM (active) | IC50 [4]: 17.5 µM (active)

COc1ccc(S(=O)(=O)Nc2ccc3c(c2)CC(=O)N([C@H](C)CO)C[C@@H](C)[C@H](CN(C)Cc2ccc4c(c2)OCO4)O3)cc1
AC50 [1]: 5.51 µM (active)

C[C@@H]1CN([C@@H](C)CO)S(=O)(=O)c2ccc(C#Cc3ccncc3)cc2O[C@H]1CN(C)S(=O)(=O)c1ccc(F)cc1
AC50 [5]: 2.95 µM (active)

O=C(N/N=C/C=C/c1ccccc1)c1ccncc1
IC50 [6]: 0.48 µM (active)

CC(C)NC(=O)Nc1ccc2c(c1)CC(=O)N([C@H](C)CO)C[C@H](C)[C@H](CN(C)Cc1ccc(C(=O)Nc3ccccc3N)cc1)O2
AC50 [1]: 4 µM (active)

COCC(=O)N1CC2(C1)CN(Cc1ccccc1F)[C@H](CO)c1[nH]c3cc(OC)ccc3c12
AC50 [5]: 11.5 µM (active)

C[C@H]1CN([C@@H](C)CO)C(=O)c2cccc(NC(=O)Nc3ccccc3)c2O[C@@H]1CN(C)Cc1ccc(C(=O)Nc2ccccc2N)cc1
AC50 [1]: 1.54 µM (active)

COc1ccc2cc3cc(C(=O)N4CC(C)CC(C)C4)oc3nc2c1 (configuration not stated)
IC50 [7]: 3.88 µM (active)

COc1ccc(NC(=S)N2CCC(N(C)CCN3CCOCC3)CC2)cc1Cl
IC50 [8]: > 47.1 µM (inactive) | EC50 [9]: > 53 µM (inactive)

CCOC(=O)c1oc2cc(O)ccc2c(=O)c1-c1ccccc1OC
Ki [10]: > 66.7 µM (inactive)

COc1ccc(/C=C(\NC(=O)c2ccc([N+](=O)[O-])cc2)C(=O)NCCN2CCOCC2)cc1
IC50 [7]: 5.27 µM (active)

O=C(c1ccccc1)c1nn(-c2ccc(Cl)cc2)cc1C(=O)c1cc2ccccc2oc1=O
IC50 [8]: > 47.1 µM (inactive) | EC50 [9]: > 53 µM (inactive)

CC12CN3CC(C)(CN(C1)C3c1ccc(Cl)cc1Cl)C2O (configuration not stated)
EC50 [11]: 4.22 µM (active)

N#CC1=C(N)N=C(S)C(C(N)=O)C1c1ccc(Cl)cc1Cl (configuration not stated)
IC50 [2]: > 50 µM (inactive) | IC50 [3]: 13.3 µM (active)

COc1ccc(C#Cc2cccc(-c3nc(C(=O)N[C@@H]4CCN(Cc5ccccc5)C4)cc4c3[C@H](CCO)N([S+]([O-])C(C)(C)C)C4)c2)cc1OC (some centres not stated)
AC50 [5]: 4.45 µM (active)

CCCS(=O)(=O)N1CCCC(C(=O)N2CCC(Cc3ccccc3)CC2)C1 (configuration not stated)
Ki [10]: > 66.7 µM (inactive) | EC50 [12]: > 195 µM (not active)

COc1ccc(C)cc1NC1=NC(C)(C)CS1
EC50 [11]: 7.5 µM (active)

CN(C)c1nc(N(C)C)nc(N(C)C)n1 [ALTRETAMINE]
GI50 [13]: > 136 µM (inactive) | GI50 [14]: > 150 µM (inactive) | Ki [10]: > 66.7 µM (inactive) | GI50 [15]: > 106 µM (inactive)

CC(C)c1ccc(OCC(=O)NNC(=O)c2cnccn2)cc1
IC50 [6]: 11.9 µM (active)

C[C@H]1CN([C@@H](C)CO)C(=O)c2cc(NC(=O)Nc3ccc4c(c3)OCO4)ccc2O[C@@H]1CN(C)Cc1ccc(Oc2ccccc2)cc1
AC50 [1]: 4.01 µM (active)

O=C(c1ccc(Cl)cc1)N(Cc1cccs1)C1CCS(=O)(=O)C1 (configuration not stated)
Ki [10]: > 66.7 µM (inactive)

Cc1cccc(-n2cnc3c(c2=O)c2nc4ccccc4nc2n3Cc2ccco2)c1
IC50 [2]: 0.871 µM (active) | IC50 [3]: 2.16 µM (active)

C[C@H](CO)N1C[C@H](C)[C@H](CN(C)Cc2ccc(C(=O)Nc3ccccc3N)cc2)Oc2ccc(NC(=O)C3CCCCC3)cc2CC1=O
AC50 [1]: 3.41 µM (active)

C[C@H](CO)N1C[C@H](C)[C@H](CN(C)Cc2ccc(C(=O)Nc3ccccc3N)cc2)Oc2c(NC(=O)Nc3ccc4c(c3)OCO4)cccc2C1=O
AC50 [1]: 5.97 µM (active)

C/C=C/c1ccc2c(c1)[C@@H]1[C@@H](CCN1S(=O)(=O)c1ccccc1C)[C@H](CO)N2
AC50 [5]: 7.49 µM (active)

CN1CCN(CCCNC(=O)Nc2cccc3ccccc23)CC1
Ki [10]: > 66.7 µM (inactive)

COc1cc(OC)c2ccc(=O)oc2c1C(CCN1CCOCC1)c1ccc2c(c1)OCO2 (configuration not stated)
IC50 [8]: > 47.1 µM (inactive) | EC50 [9]: > 53 µM (inactive)

COc1ccc(-c2cc(C(F)(F)F)nc(N3CCN(c4ccccc4)CC3)n2)cc1OC
Ki [10]: > 66.7 µM (inactive)

CCOC(=O)Cc1cc(O)n2nc(C)c(-c3ccc(OC)cc3)c2n1
Ki [10]: 18.3 µM (inactive)

O=C(N/N=C/c1ccncc1)c1ccc(NC(=O)c2ccc(Cl)cc2)cc1
IC50 [2]: > 50 µM (inactive) | IC50 [3]: > 56.8 µM (not active)

COc1ccc(NC(=O)C2C3CCC(C3)C2C(=O)O)cc1OC (configuration not stated)
Ki [10]: > 66.7 µM (inactive)

Cc1noc(NS(=O)(=O)c2ccc(N/C=C\C(=O)c3cccc4ccccc34)cc2)c1C
IC50 [8]: > 47.1 µM (inactive) | EC50 [9]: > 53 µM (inactive)
